# Patent publication US11883455B2, “Nigella sativa oil composition” (N.S. OILS LTD., priority 2018, dated 2024)
# Test system: production of nitric oxide (NO) by murine macrophages (RAW 264.7 cell line) activated by lipopolysaccharide (LPS)
# Assay: Nitric oxide (NO) release by LPS-activated RAW 264.7 macrophages, Griess Reagent System
# Format: cell-based
# Procedure: In addition, positive control cells were treated with 20 μM dexamethasone.
Compound,"NO inhibition by carvacrol alone (carvacrol only 0.05%, 0.1%, 0.15% solutions, dilutions 1:500,000, 1:200,000, 1:100,000)","NO inhibition by p-cymene alone (p-cymene only 0.1%, 0.25%, 0.5%, 0.75% solutions, final dilution 1:200,000)"
Cc1ccc(C(C)C)cc1O [carvacrol],None of the carvacrol-only dilutions caused any NO inhibition,–
Cc1ccc(C(C)C)cc1 [p-cymene],–,None of the p-cymene-only dilutions caused any NO inhibition
